The source of these data is patent US20200055839A1 (priority 2017, published 2020).

This assay concerns NL-RLuc virus. As to the kind of experiment: Inhibition of HIV replication (NL-RLuc virus, luciferase readout in MT-2 cells). To be noted: MT-2 cells infected with NL-RLuc virus, 5 days of incubation, 10% FBS, at least 2 experiments. The assay is classed as cell-based. Put shortly: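 EC50 derived via median effect equation from at least 2 experiments, using luciferase expression as virus-growth readout. Replication-competent NL-RLuc reporter virus (nef partly replaced by Renilla luciferase) infected MT-2 cells with serial compound dilutions; 5-day incubation in RPMI 1640 plus 10% FBS.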

Where [1] appears, read: Human immunodeficiency virus 1, MT2, 120 h.

Under setting [1], `Cc1ncc(-c2ccccc2-c2ccccc2)c(N2CCC(C)(C)CC2)c1[C@H](OC(C)(C)C)C(=O)O` [Example 138, (2S)-2-(5-{[1,1′-Biphenyl]-2-yl}-4-(4,4-dimethylpiperidin-1-yl)-2-methylpyridin-3-yl)-2-(tert-butoxy)acetic acid] displayed an EC50 of 71 nM.

For `Cc1ccccc1CCOc1ccc(-c2cnc(C)c([C@H](OC(C)(C)C)C(=O)O)c2N2CCC(C)(C)CC2)nc1` [Example 289, (2S)-2-(tert-butoxy)-2-[4′-(4,4-dimethylpiperidin-1-yl)-6′-methyl-5-[2-(2-methylphenyl)ethoxy]-[2,3′-bipyridine]-5′-yl]acetic acid], the EC50 under setting [1] came out at 1 nM.

`Cc1ncc(-c2ccccc2C(N)=O)c(N2CCC(C)(C)CC2)c1[C@H](OC(C)(C)C)C(=O)O` [Example 154, (2S)-2-(tert-butoxy)-2-[5-(2-carbamoylphenyl)-4-(4,4-dimethylpiperidin-1-yl)-2-methylpyridin-3-yl]acetic acid]: under setting [1], the EC50 was 52 nM.

Take `CCC(C)(C)O[C@H](C(=O)O)c1c(C)ncc(-c2ccc(OCCc3ccc(F)cc3)cn2)c1N1CCC(C)(C)CC1` [Example 246, (S)-2-(4′-(4,4-Dimethylpiperidin-1-yl)-5-(4-fluorophenethoxy)-6′-methyl-[2, 3′-bipyridin]-5′-yl)-2-(tert-pentyloxy)acetic acid]: a half-maximal effect under setting [1] (EC50) was put at 0.4 nM.

Molecule `Cc1nc(OCC(C)C)ccc1-c1cnc(C)c([C@H](OC(C)(C)C)C(=O)O)c1N1CCC(C)(C)CC1` [Example 418, (S)-2-(tert-Butoxy)-2-(4-(4,4-dimethylpiperidin-1-yl)-6′-isobutoxy-2′,6-dimethyl-[3, 3′-bipyridin]-5-yl)acetic acid] had an EC50 under setting [1] of 107 nM.

Under setting [1], `COc1ccc(-c2c(CN3CCC4(CCC4)CC3)nc(C)c([C@H](OC(C)(C)C)C(=O)O)c2N2CCC(C)(C)CC2)cc1` [Example 192, (2S)-2-[6-({7-Azaspiro[3.5]nonan-7-yl}methyl)-4-(4,4-dimethylpiperidin-1-yl)-5-(4-methoxyphenyl)-2-methylpyridin-3-yl]-2-(tert-butoxy)acetic acid] came in with an EC50 of 1 nM.

As for `Cc1ncc(-c2ccc(OCCc3cccc(F)c3)c(F)c2)c(N2CCC(C)(C)CC2)c1[C@H](OC(C)(C)C)C(=O)O` [Example 257, (S)-2-(tert-Butoxy)-2-(4-(4,4-dimethylpiperidin-1-yl)-5-(3-fluoro-4-(3-fluorophenethoxy)phenyl)-2-methylpyridin-3-yl)acetic acid], a half-maximal effect under setting [1] (EC50) was put at 1 nM. That is a single-digit nanomolar value.

For the molecule `COc1ccccc1CCOc1ncc(-c2cnc(C)c([C@H](OC(C)(C)C)C(=O)O)c2N2CCC(C)(C)CC2)cc1F` [Example 382, (2S)-2-(tert-butoxy)-2-[4-(4,4-dimethylpiperidin-1-yl)-5′-fluoro-6′-[2-(2-methoxyphenyl)ethoxy]-6-methyl-[3,3′-bipyridine]-5-yl]acetic acid], the EC50 under setting [1] was 5 nM.

For the molecule `Cc1ncc(-c2ccc(OCCc3ccccc3Cl)cn2)c(N2CCC(C)(C)CC2)c1[C@H](OC(C)(C)C)C(=O)O` [Example 302, (2S)-2-(tert-butoxy)-2-{5-[2-(2-chlorophenyl)ethoxy]-4′-(4,4-dimethylpiperidin-1-yl)-6′-methyl-[2,3′-bipyridine]-5′-yl}acetic acid], the EC50 under setting [1] was 0.6 nM. Against the preceding molecule, the EC50 is about 8.3-fold lower.

Regarding `Cc1ncc(-c2ccc(OCCc3ccc(F)c(F)c3)cn2)c(N2CCC(C)(C)CC2)c1[C@H](OC(C)(C)C)C(=O)O` [Example 299, (2S)-2-(tert-butoxy)-2-{5-[2-(3,4-difluorophenyl)ethoxy]-4′-(4,4-dimethylpiperidin-1-yl)-6′-methyl-[2,3′-bipyridine]-5′-yl}acetic acid], the EC50 under setting [1] came out at 1 nM.

The molecule `Cc1nc(NCC2CCN(C)CC2)c(-c2ccc(OCCc3ccc(F)cc3)cc2)c(N2CCC(C)(C)CC2)c1[C@H](OC(C)(C)C)C(=O)O` [Example 42, (S)-2-(tert-Butoxy)-2-(4-(4,4-dimethylpiperidin-1-yl)-5-(4-(4-fluorophenethoxy)phenyl)-2-methyl-6-(((1-methylpiperidin-4-yl)methyl)amino)pyridin-3-yl)acetic acid] registered an EC50 under setting [1] of 3 nM.

Take `COc1ccc(-c2cnc(C)c([C@H](OC(C)(C)C)C(=O)O)c2N2CCC(C)(C)CC2)cc1` [Example 136, (2S)-2-(tert-Butoxy)-2-[4-(4,4-dimethylpiperidin-1-yl)-5-(4-methoxyphenyl)-2-methylpyridin-3-yl]acetic acid]: the EC50 under setting [1] turned out to be 2 nM.

Molecule `Cc1nc(CN2CCC3(CCC3)CC2)c(-c2cc(F)c(F)c(F)c2)c(N2CCC(C)(C)CC2)c1[C@H](OC(C)(C)C)C(=O)O` [Example 193, (2S)-2-[6-({7-Azaspiro[3.5]nonan-7-yl}methyl)-4-(4,4-dimethylpiperidin-1-yl)-2-methyl-5-(3,4,5-trifluorophenyl)pyridin-3-yl]-2-(tert-butoxy)acetic acid] yielded a concentration giving a half-maximal response (EC50) under setting [1] of 4 nM.

Regarding `Cc1ncc(-c2ccc([C@H](O)CC(C)C)nc2)c(N2CCC(C)(C)CC2)c1[C@H](OC(C)(C)C)C(=O)O` [Example 433, (S)-2-tert-butoxy-2-(4-(4,4-dimethylpiperidin-1-yl)-6′-((R)-1-hydroxy-3-methylbutyl)-6-methyl-3,3′-bipyridin-5-yl)acetic acid], under setting [1], the half-maximal effective concentration (EC50) came out at 25 nM.

`Cc1cc(CCOc2ncc(-c3cnc(C)c([C@H](OC(C)(C)C)C(=O)O)c3N3CCC(C)(C)CC3)cc2F)ccc1F` [Example 397, (2S)-2-(tert-butoxy)-2-[4-(4,4-dimethylpiperidin-1-yl)-5′-fluoro-6′-[2-(4-fluoro-3-methylphenyl)ethoxy]-6-methyl-[3,3′-bipyridine]-5-yl]acetic acid]: the concentration for a half-maximal effect (EC50) under setting [1] was 2 nM.

Regarding `Cc1ncc(-c2ccc(OCCc3ccc(F)cc3Cl)cn2)c(N2CCC(C)(C)CC2)c1[C@H](OC(C)(C)C)C(=O)O` [Example 310, (2S)-2-(tert-butoxy)-2-{5-[2-(2-chloro-4-fluorophenyl)ethoxy]-4′-(4,4-dimethylpiperidin-1-yl)-6′-methyl-[2,3′-bipyridine]-5′-yl}acetic acid], the EC50 under setting [1] was 0.5 nM. Compared with the last molecule, the EC50 is about 4-fold lower.

Molecule `Cc1cc(-c2cnc(C)c([C@H](OC(C)(C)C)C(=O)O)c2N2CCC(C)(C)CC2)ccn1` [Example 142, (2S)-2-(tert-Butoxy)-2-[4-(4,4-dimethylpiperidin-1-yl)-2′,6-dimethyl-[3, 4′-bipyridine]-5-yl]acetic acid] displayed a concentration for a half-maximal effect (EC50) under setting [1] of 6 nM. This EC50 lies about 12-fold higher than the previous one.

With `Cc1ncc(-c2ccc(CNc3ncnc4c3oc3ccccc34)cc2)c(N2CCC(C)(C)CC2)c1[C@H](OC(C)(C)C)C(=O)O` [Example 21, (2S)-2-(tert-Butoxy)-2-[4-(4,4-dimethylpiperidin-1-yl)-2-methyl-5-{4-[({8-oxa-3,5-diazatricyclo[7.4.0.0^2,7]trideca-1(9), 2(7), 3,5,10, 12-hexaen-6-yl}amino)methyl]phenyl}pyridin-3-yl]acetic acid], a half-maximal response under setting [1] (EC50) required 2 nM.

`Cc1ncc(-c2cccc(-c3cccc(Cl)c3)c2)c(N2CCC(C)(C)CC2)c1[C@H](OC(C)(C)C)C(=O)O` [Example 144, (2S)-2-(tert-butoxy)-2-(5-{3′-chloro-[1,1′-biphenyl]-3-yl}-4-(4,4-dimethylpiperidin-1-yl)-2-methylpyridin-3-yl)acetic acid] displayed an EC50 under setting [1] of 78 nM. This EC50 is about 39-fold higher than that of the molecule before.

Under setting [1], `Cc1nc(NC2CCN(C)CC2)c(-c2ccc(OCCc3ccc(F)cc3)cc2)c(N2CCC(C)(C)CC2)c1[C@H](OC(C)(C)C)C(=O)O` [Example 25, (S)-2-(tert-Butoxy)-2-(4-(4,4-dimethylpiperidin-1-yl)-5-(4-(4-fluorophenethoxy)phenyl)-2-methyl-6-((1-methylpiperidin-4-yl)amino)pyridin-3-yl)acetic acid] gave an EC50 of 0.8 nM.

Under setting [1], `CCCCCOc1ccc(-c2cnc(C)c([C@H](OC(C)(C)C)C(=O)O)c2N2CCC(C)(C)CC2)cn1` [Example 408, (S)-2-(tert-Butoxy)-2-(4-(4,4-dimethylpiperidin-1-yl)-6-methyl-6′-(pentyloxy)-[3, 3′-bipyridin]-5-yl)acetic acid] gave an EC50 of 2 nM.

For `Cc1nc(Nc2ccnc(F)c2)c(-c2ccc(OCCc3ccc(F)cc3)cc2)c(N2CCC(C)(C)CC2)c1[C@H](OC(C)(C)C)C(=O)O` [Example 95, (S)-2-(tert-Butoxy)-2-(4-(4,4-dimethylpiperidin-1-yl)-5-(4-(4-fluorophenethoxy)phenyl)-6-((2-fluoropyridin-4-yl)amino)-2-methylpyridin-3-yl)acetic acid], the EC50 is 8 nM. That is a single-digit nanomolar value.

In the case of `COc1ccc(-c2cnc(C)c([C@H](OC(C)(C)C)C(=O)O)c2N2CCC(C)(C)CC2)cc1C` [Example 178, (2S)-2-(tert-Butoxy)-2-[4-(4,4-dimethylpiperidin-1-yl)-5-(4-methoxy-3-methylphenyl)-2-methylpyridin-3-yl]acetic acid], the EC50 under setting [1] was determined as 2 nM.

Under setting [1], `Cc1ncc(-c2ccccc2C#N)c(N2CCC(C)(C)CC2)c1[C@H](OC(C)(C)C)C(=O)O` [Example 153, (2S)-2-(tert-Butoxy)-2-[5-(2-cyanophenyl)-4-(4,4-dimethylpiperidin-1-yl)-2-methylpyridin-3-yl]acetic acid] yielded an EC50 of 29 nM.

In turn, `COc1cc(-c2cnc(C)c([C@H](OC(C)(C)C)C(=O)O)c2N2CCC(C)(C)CC2)ccn1` [Example 164, (2S)-2-(tert-Butoxy)-2-[4-(4,4-dimethylpiperidin-1-yl)-2′-methoxy-6-methyl-[3, 4′-bipyridine]-5-yl]acetic acid] registered an EC50 under setting [1] of 4 nM.

On to `CCCCNc1ccc(-c2cnc(C)c([C@H](OC(C)(C)C)C(=O)O)c2N2CCC(C)(C)CC2)nc1` [Example 441, (S)-2-(tert-Butoxy)-2-(5-(butylamino)-4′-(4,4-dimethylpiperidin-1-yl)-6′-methyl-[2, 3′-bipyridin]-5′-yl)acetic acid], for which, under setting [1], the EC50 was determined as 7 nM.

Under setting [1], `Cc1nc(NCCCC2CCCCC2)c(-c2ccc(OCCc3ccc(F)cc3)cc2)c(N2CCC(C)(C)CC2)c1[C@H](OC(C)(C)C)C(=O)O` [Example 91, (S)-2-(tert-Butoxy)-2-(6-((3-cyclohexylpropyl)amino)-4-(4,4-dimethylpiperidin-1-yl)-5-(4-(4-fluorophenethoxy)phenyl)-2-methylpyridin-3-yl)acetic acid] had an EC50 of 72 nM.
